In patent US9723840B2 (SYNGENTA PARTICIPATIONS AG, priority 2013, dated 2017):

Legend:
Format in all cases: in vivo
Echinochloa crus-galli [1] = experiment: Post-emergence herbicidal activity, ECHCG; parameters: key: 5=total damage to plant; 0=no damage to plant; details: 1000 g/Ha, post-emergence spray (8 days cultivation), evaluated after 13 days, scale 0-5
Protocol: (§1) Seeds of a variety of test species were sown in standard soil in pots. After 8 days cultivation (post-emergence) under controlled conditions in a glasshouse (at 24/16° C., day/night; 14 hours light; 65% humidity), the plants were sprayed with an aqueous spray solution derived from the formulation of the technical active ingredient in acetone/water (50:50) solution containing 0.5% Tween 20 (polyoxyethelyene sorbitan monolaurate, CAS RN 9005-64-5). The test plants were then grown in a glasshouse under controlled conditions (at 24/16° C., day/night; 14 hours light; 65% humidity) and watered twice daily. After 13 days, the test was evaluated (5=total damage to plant; 0=no damage to plant).

Zea mays [2] = experiment: Post-emergence herbicidal activity, ZEAMX; parameters: key: 5=total damage to plant; 0=no damage to plant; details: 1000 g/Ha, post-emergence spray (8 days cultivation), evaluated after 13 days, scale 0-5
Protocol: as §1

Abutilon theophrasti [3] = experiment: Post-emergence herbicidal activity, ABUTH; parameters: key: 5=total damage to plant; 0=no damage to plant; details: 1000 g/Ha, post-emergence spray (8 days cultivation), evaluated after 13 days, scale 0-5
Protocol: as §1

Setaria faberi [4] = experiment: Pre-emergence herbicidal activity, SETFA; parameters: key: 5=total damage to plant; 0=no damage to plant; details: 1000 g/Ha, pre-emergence spray, evaluated after 13 days, scale 0-5
Protocol: as §1, with “After” for “After 8 days”, “for one day (pre-emergence)” for “(post-emergence)”

Echinochloa crus-galli [5] = experiment: Pre-emergence herbicidal activity, ECHCG; parameters: key: 5=total damage to plant; 0=no damage to plant; details: 1000 g/Ha, pre-emergence spray, evaluated after 13 days, scale 0-5
Protocol: as §1, with “After” for “After 8 days”, “for one day (pre-emergence)” for “(post-emergence)”

Alopecurus myosuroides [6] = experiment: Post-emergence herbicidal activity, ALOMY; parameters: key: 5=total damage to plant; 0=no damage to plant; details: 1000 g/Ha, post-emergence spray (8 days cultivation), evaluated after 13 days, scale 0-5
Protocol: as §1

Zea mays [7] = experiment: Pre-emergence herbicidal activity, ZEAMX; details: 1000 g/Ha, pre-emergence spray, evaluated after 13 days, scale 0-5
Protocol: as §1, with “After” for “After 8 days”, “for one day (pre-emergence)” for “(post-emergence)”

Amaranthus retroflexus [8] = experiment: Pre-emergence herbicidal activity, AMARE; parameters: key: 5=total damage to plant; 0=no damage to plant; details: 1000 g/Ha, pre-emergence spray, evaluated after 13 days, scale 0-5
Protocol: as §1, with “After” for “After 8 days”, “for one day (pre-emergence)” for “(post-emergence)”

Amaranthus retroflexus [9] = experiment: Post-emergence herbicidal activity, AMARE; parameters: key: 5=total damage to plant; 0=no damage to plant; details: 1000 g/Ha, post-emergence spray (8 days cultivation), evaluated after 13 days, scale 0-5
Protocol: as §1

Abutilon theophrasti [10] = experiment: Pre-emergence herbicidal activity, ABUTH; parameters: key: 5=total damage to plant; 0=no damage to plant; details: 1000 g/Ha, pre-emergence spray, evaluated after 13 days, scale 0-5
Protocol: as §1, with “After” for “After 8 days”, “for one day (pre-emergence)” for “(post-emergence)”

Alopecurus myosuroides [11] = experiment: Pre-emergence herbicidal activity, ALOMY; details: 1000 g/Ha, pre-emergence spray, evaluated after 13 days, scale 0-5
Protocol: as §1, with “After” for “After 8 days”, “for one day (pre-emergence)” for “(post-emergence)”

Setaria faberi [12] = experiment: Post-emergence herbicidal activity, SETFA; parameters: key: 5=total damage to plant; 0=no damage to plant; details: 1000 g/Ha, post-emergence spray (8 days cultivation), evaluated after 13 days, scale 0-5
Protocol: as §1

SMILES: CC1C(O)N(c2cc(C(C)(F)F)c(Cl)nn2)C(=O)N1C (centres unmarked) [Example A11]
- ECHCG damage score, application post-emergence (Echinochloa crus-galli [1]): 5
- ZEAMX damage score, application post-emergence (Zea mays [2]): 5
- ABUTH damage score, application post-emergence (Abutilon theophrasti [3]): 5
- SETFA damage score, application pre-emergence (Setaria faberi [4]): 5
- ECHCG damage score, application pre-emergence (Echinochloa crus-galli [5]): 5
- ALOMY damage score, application post-emergence (Alopecurus myosuroides [6]): 5
- ZEAMX damage score, application pre-emergence (Zea mays [7]): 4
- AMARE damage score, application pre-emergence (Amaranthus retroflexus [8]): 5
- AMARE damage score, application post-emergence (Amaranthus retroflexus [9]): 5
- ABUTH damage score, application pre-emergence (Abutilon theophrasti [10]): 5
- ALOMY damage score, application pre-emergence (Alopecurus myosuroides [11]): 4
- SETFA damage score, application post-emergence (Setaria faberi [12]): 5

SMILES: COC1C(O)N(c2cc(C(C)(C)F)c(Cl)nn2)C(=O)N1C (centres unmarked) [Example A8]
- ECHCG damage score, application post-emergence (Echinochloa crus-galli [1]): 5
- ZEAMX damage score, application post-emergence (Zea mays [2]): 4
- ABUTH damage score, application post-emergence (Abutilon theophrasti [3]): 5
- SETFA damage score, application pre-emergence (Setaria faberi [4]): 5
- ECHCG damage score, application pre-emergence (Echinochloa crus-galli [5]): 5
- ALOMY damage score, application post-emergence (Alopecurus myosuroides [6]): 4
- ZEAMX damage score, application pre-emergence (Zea mays [7]): 3
- AMARE damage score, application pre-emergence (Amaranthus retroflexus [8]): 5
- AMARE damage score, application post-emergence (Amaranthus retroflexus [9]): 5
- ABUTH damage score, application pre-emergence (Abutilon theophrasti [10]): 5
- ALOMY damage score, application pre-emergence (Alopecurus myosuroides [11]): 4
- SETFA damage score, application post-emergence (Setaria faberi [12]): 5

SMILES: CC1C(O)N(c2ccc(C(=O)NC(C)(C)C)nn2)C(=O)N1C (centres unmarked) [Example A15]
- ECHCG damage score, application post-emergence (Echinochloa crus-galli [1]): 5
- ZEAMX damage score, application post-emergence (Zea mays [2]): 5
- ABUTH damage score, application post-emergence (Abutilon theophrasti [3]): 5
- SETFA damage score, application pre-emergence (Setaria faberi [4]): 4
- ECHCG damage score, application pre-emergence (Echinochloa crus-galli [5]): 5
- ALOMY damage score, application post-emergence (Alopecurus myosuroides [6]): 5
- ZEAMX damage score, application pre-emergence (Zea mays [7]): 3
- AMARE damage score, application pre-emergence (Amaranthus retroflexus [8]): 5
- AMARE damage score, application post-emergence (Amaranthus retroflexus [9]): 5
- ABUTH damage score, application pre-emergence (Abutilon theophrasti [10]): 5
- ALOMY damage score, application pre-emergence (Alopecurus myosuroides [11]): 4
- SETFA damage score, application post-emergence (Setaria faberi [12]): 5

SMILES: CN1C(=O)N(c2cc(C(F)(F)F)c(Cl)nn2)C(O)C1O (centres unmarked) [Example A22]
- ECHCG damage score, application post-emergence (Echinochloa crus-galli [1]): 5
- ZEAMX damage score, application post-emergence (Zea mays [2]): 3
- ABUTH damage score, application post-emergence (Abutilon theophrasti [3]): 5
- SETFA damage score, application pre-emergence (Setaria faberi [4]): 4
- ECHCG damage score, application pre-emergence (Echinochloa crus-galli [5]): 2
- ZEAMX damage score, application pre-emergence (Zea mays [7]): 1
- AMARE damage score, application pre-emergence (Amaranthus retroflexus [8]): 5
- AMARE damage score, application post-emergence (Amaranthus retroflexus [9]): 5
- ABUTH damage score, application pre-emergence (Abutilon theophrasti [10]): 5
- SETFA damage score, application post-emergence (Setaria faberi [12]): 5

SMILES: CC1C(O)N(c2cc(C(F)(F)F)cnn2)C(=O)N1C (centres unmarked) [Example A21]
- ECHCG damage score, application post-emergence (Echinochloa crus-galli [1]): 5
- ZEAMX damage score, application post-emergence (Zea mays [2]): 5
- ABUTH damage score, application post-emergence (Abutilon theophrasti [3]): 5
- SETFA damage score, application pre-emergence (Setaria faberi [4]): 5
- ECHCG damage score, application pre-emergence (Echinochloa crus-galli [5]): 5
- ZEAMX damage score, application pre-emergence (Zea mays [7]): 3
- AMARE damage score, application pre-emergence (Amaranthus retroflexus [8]): 5
- AMARE damage score, application post-emergence (Amaranthus retroflexus [9]): 5
- ABUTH damage score, application pre-emergence (Abutilon theophrasti [10]): 5
- SETFA damage score, application post-emergence (Setaria faberi [12]): 5

SMILES: CCOC1C(O)N(c2cc(C(F)(F)F)c(Cl)nn2)C(=O)N1C (centres unmarked) [Example A23]
- ECHCG damage score, application post-emergence (Echinochloa crus-galli [1]): 5
- ZEAMX damage score, application post-emergence (Zea mays [2]): 3
- ABUTH damage score, application post-emergence (Abutilon theophrasti [3]): 5
- SETFA damage score, application pre-emergence (Setaria faberi [4]): 5
- ECHCG damage score, application pre-emergence (Echinochloa crus-galli [5]): 5
- ZEAMX damage score, application pre-emergence (Zea mays [7]): 2
- AMARE damage score, application pre-emergence (Amaranthus retroflexus [8]): 5
- AMARE damage score, application post-emergence (Amaranthus retroflexus [9]): 5
- ABUTH damage score, application pre-emergence (Abutilon theophrasti [10]): 5
- SETFA damage score, application post-emergence (Setaria faberi [12]): 5

SMILES: CN1CC(O)N(c2ccc(C(=O)NC(C)(C)C)nn2)C1=O (centres unmarked) [Example A25]
- ECHCG damage score, application post-emergence (Echinochloa crus-galli [1]): 5
- ZEAMX damage score, application post-emergence (Zea mays [2]): 3
- ABUTH damage score, application post-emergence (Abutilon theophrasti [3]): 5
- SETFA damage score, application pre-emergence (Setaria faberi [4]): 5
- ECHCG damage score, application pre-emergence (Echinochloa crus-galli [5]): 5
- ZEAMX damage score, application pre-emergence (Zea mays [7]): 2
- AMARE damage score, application pre-emergence (Amaranthus retroflexus [8]): 5
- AMARE damage score, application post-emergence (Amaranthus retroflexus [9]): 5
- ABUTH damage score, application pre-emergence (Abutilon theophrasti [10]): 5
- SETFA damage score, application post-emergence (Setaria faberi [12]): 5

SMILES: CCOC1C(O)N(c2cc(C(F)(F)F)cnn2)C(=O)N1C (centres unmarked) [Example A24]
- ECHCG damage score, application post-emergence (Echinochloa crus-galli [1]): 5
- SETFA damage score, application pre-emergence (Setaria faberi [4]): 5
- ECHCG damage score, application pre-emergence (Echinochloa crus-galli [5]): 4
- ZEAMX damage score, application pre-emergence (Zea mays [7]): 2
- AMARE damage score, application pre-emergence (Amaranthus retroflexus [8]): 5
- ABUTH damage score, application pre-emergence (Abutilon theophrasti [10]): 5

SMILES: CN1CC(O)N(c2cc(C(C)(F)F)cnn2)C1=O (centres unmarked) [Example A20]
- ECHCG damage score, application post-emergence (Echinochloa crus-galli [1]): 5
- ZEAMX damage score, application post-emergence (Zea mays [2]): 5
- ABUTH damage score, application post-emergence (Abutilon theophrasti [3]): 5
- SETFA damage score, application pre-emergence (Setaria faberi [4]): 5
- ECHCG damage score, application pre-emergence (Echinochloa crus-galli [5]): 5
- ZEAMX damage score, application pre-emergence (Zea mays [7]): 3
- AMARE damage score, application pre-emergence (Amaranthus retroflexus [8]): 5
- AMARE damage score, application post-emergence (Amaranthus retroflexus [9]): 5
- ABUTH damage score, application pre-emergence (Abutilon theophrasti [10]): 5
- SETFA damage score, application post-emergence (Setaria faberi [12]): 5

SMILES: CN1CC(O)N(c2cc(C(C)(C)F)cnn2)C1=O (centres unmarked) [Example A18]
- ECHCG damage score, application post-emergence (Echinochloa crus-galli [1]): 5
- ZEAMX damage score, application post-emergence (Zea mays [2]): 4
- ABUTH damage score, application post-emergence (Abutilon theophrasti [3]): 5
- SETFA damage score, application pre-emergence (Setaria faberi [4]): 4
- ECHCG damage score, application pre-emergence (Echinochloa crus-galli [5]): 5
- ZEAMX damage score, application pre-emergence (Zea mays [7]): 2
- AMARE damage score, application pre-emergence (Amaranthus retroflexus [8]): 5
- AMARE damage score, application post-emergence (Amaranthus retroflexus [9]): 5
- ABUTH damage score, application pre-emergence (Abutilon theophrasti [10]): 5
- SETFA damage score, application post-emergence (Setaria faberi [12]): 5

SMILES: CN1CC(O)N(c2cc(C(C)(C)F)c(-c3ccccc3)nn2)C1=O (centres unmarked) [Example A4]
- ECHCG damage score, application post-emergence (Echinochloa crus-galli [1]): 5
- ZEAMX damage score, application post-emergence (Zea mays [2]): 5
- ABUTH damage score, application post-emergence (Abutilon theophrasti [3]): 5
- SETFA damage score, application pre-emergence (Setaria faberi [4]): 5
- ECHCG damage score, application pre-emergence (Echinochloa crus-galli [5]): 5
- ALOMY damage score, application post-emergence (Alopecurus myosuroides [6]): 5
- AMARE damage score, application pre-emergence (Amaranthus retroflexus [8]): 5
- AMARE damage score, application post-emergence (Amaranthus retroflexus [9]): 5
- ALOMY damage score, application pre-emergence (Alopecurus myosuroides [11]): 4
- SETFA damage score, application post-emergence (Setaria faberi [12]): 5

SMILES: CC1C(O)N(c2cc(C(F)(F)F)c(Cl)nn2)C(=O)N1C (centres unmarked) [Example A16]
- ECHCG damage score, application post-emergence (Echinochloa crus-galli [1]): 5
- ZEAMX damage score, application post-emergence (Zea mays [2]): 3
- ABUTH damage score, application post-emergence (Abutilon theophrasti [3]): 5
- SETFA damage score, application pre-emergence (Setaria faberi [4]): 3
- ECHCG damage score, application pre-emergence (Echinochloa crus-galli [5]): 5
- ZEAMX damage score, application pre-emergence (Zea mays [7]): 3
- AMARE damage score, application pre-emergence (Amaranthus retroflexus [8]): 5
- AMARE damage score, application post-emergence (Amaranthus retroflexus [9]): 5
- ABUTH damage score, application pre-emergence (Abutilon theophrasti [10]): 5
- SETFA damage score, application post-emergence (Setaria faberi [12]): 5
